Like-named read-outs stand apart in the source and are kept apart here.
How the values were obtained:
A. suum sensitized sheep = test: Ascaris suum allergen challenge model of asthma in sheep; format: in vivo
Method: Briefly, baseline lung resistance (RL) and carbachol concentration response curves were obtained prior to A. suum challenge in sheep. […] Lung resistance was subsequently measured at 0, 1, 2, 3, and 4 hours post allergen challenge to assess early airway responses and at 5, 6, 6.5, 7, 7.5 and 8 hours to assess late airway responses. At 24 hours post challenge, airway hyper-reactivity was determined based on responses to increasing doses of carbachol. Data were analyzed by a one way ANOVA followed by Dunnett's post hoc test when more than 2 groups were compared, or by a t-test when only 2 groups were compared.

[1] = Inhaled allergen challenge in human subjects, placebo vs Senicapoc, 13 days; format: in vivo; details: for fraction of exhaled nitric oxide: after 13 days of treatment, no change in placebo group
Method: FIG. 9. FIG. 9A study design. […] FIG. 9B. Change in FEV1 over time past allergen challenge (AC) in human subjects. The late allergen response (LAR) is the decline in FEV1 4 to 10 hours after patients were challenged with an inhaled allergen. The magnitude of the decline in LAR is quantified as the area bounded by the baseline FEV1 (0%), and the actual FEV1 measurements between hours 4 and 10. Subjects randomized to 13 days of treatment with placebo had no change in the LAR (left panel). […] By analysis of co-variance, the difference in LAR at Day 13 between the two treatment groups was 29%.
By analysis of co-variance, the difference in late airway responsiveness between the two treatment groups was 29% (see, FIG. 9B). In addition, the fraction of nitric oxide exhaled by Senicapoc-treated group declined with no change seen in the placebo group (data not shown).

[2] = Pharmacokinetics of Senicapoc in sheep plasma; format: in vivo; details: 30 mg/kg po b.i.d.; relative to levels required to block KCa3.1
Method: Since statistically significant effects were observed on lung resistance and airway hyper-reactivity following the 30 mg/kg dose, this level of exposure is sufficient to achieve efficacy in the sheep model. FIG. 7 illustrates exposure in man following administration of a range of doses. The average efficacious plasma level from the sheep model is illustrated by the dashed line.

[3] = test system: human lung mast cells (HLMC); test: HLMC chemotaxis (mast cell migration) assay, Transwell system; format: cell-based; details: airway smooth muscle-conditioned media; 10, 100, 1000 nM; 3 hours
Method: Mast cell migration studies were then performed by a method similar to as described in the method of Cruse et al. (Thorax. 2006 61:880-5). Briefly, HLMC chemotaxis assays were performed using the Transwell system with 24 wells. Airway smooth muscle-conditioned media was placed in the lower wells. […] After incubating the cells for 3 hours at 37° C., the number of HLMC in the bottom well were counted using Kimura stain in a hemocytometer. HLMC migration was calculated as the fold increase of migrated cells in the test wells compared with the negative control containing no chemoattractant in the lower well (FIG. 1).

Half-life in blood = format: in vitro ADME; details: including human blood
Source text: Triphenylacetamide-based K^+-channel blockers are promising candidates for the treatment of sickle cell disease (SCD) as discussed in U.S. Pat. No. 6,288,122 which is herein incorporated by reference. In addition, studies indicate that triphenylacetamide-based inhibitors are potential candidate drugs for the treatment of inflammatory conditions.

recombinant human KCa3.1 = recombinant human KCa3.1 (Homo sapiens, UniProt O15554); test: Whole patch clamp of potassium currents in CHO cells stably expressing recombinant human KCa3.1; format: cell-based; details: 1000 nM Senicapoc; FIG. 2 right panel; cell type not stated
[4] = cited from earlier work; for mean Cmax / mean total systemic dose / oral clearance rate / terminal half-life: patients with sickle cell disease

NC(=O)C(c1ccccc1)(c1ccc(F)cc1)c1ccc(F)cc1 [Senicapoc, 2,2-bis(4-fluorophenyl)-2-phenylacetamide]
reversal of the hyper-reactivity to carbachol (A. suum sensitized sheep; 30 mg/kg PO for 4 days): Complete reversal | apparent reduction in peak early response (A. suum sensitized sheep; 30 mg/kg PO, not statistically significant): 33% | average late allergen responses (lung resistance) (A. suum sensitized sheep; 5-8 hours after allergen challenge, oral, IV and inhalation routes): significantly attenuates | hyper-reactivity to aerosolized carbachol (A. suum sensitized sheep; 24 hours post A. suum challenge, all three routes of administration): significantly reduced | reversal of the hyper-reactivity to carbachol (A. suum sensitized sheep; acute 10 mg/kg IV dosing): Complete reversal | peak early airway responses (A. suum sensitized sheep; immediately after allergen challenge, 10 mg/kg IV): significantly reduced | difference in late airway responsiveness (LAR, FEV1 decline 4 to 10 hours) between Senicapoc and placebo groups ([1]; Day 13, 80 mg BID for three days, then 40 mg daily, analysis of co-variance): 29% | fraction of exhaled nitric oxide [1]: declined | fraction of exhaled nitric oxide ([1]; listed as senicapoc): decreased | plasma exposure corrected for protein binding [2]: sustained levels significantly above those required to block KCa3.1 | HLMC migration resulting from inflammatory stimuli [3]: inhibits | half-life in blood (Half-life in blood): long half-life | channel inhibition with varied voltage (recombinant human KCa3.1): nearly complete channel inhibition | mean elimination half-life ([4]; oral dose, across three clinical studies, 68 patients): 12 to 17 days | mean Cmax ([4]; 50 mg single dose): 59.1 ng/mL | mean total systemic dose ([4]; 50 mg single dose): 11,826 ng·hr/ml | oral clearance rate ([4]; 50 mg single dose): 4.75 L/h | terminal half-life ([4]; 50 mg single dose): 15.4 days | mean Cmax ([4]; 100 mg single dose): 108.7 ng/mL | mean total systemic dose ([4]; 100 mg single dose): 19,696 ng·hr/ml | oral clearance rate ([4]; 100 mg single dose): 6.1 L/h | terminal half-life ([4]; 100 mg single dose): 9.12 days | mean Cmax ([4]; 150 mg single dose): 109.1 ng/mL | mean total systemic dose ([4]; 150 mg single dose): 30,675 ng·hr/ml | oral clearance rate ([4]; 150 mg single dose): 5.8 L/h | terminal half-life ([4]; 150 mg single dose): 12.4 days | drug-related serious adverse events ([4]; phase I clinical studies): no drug-related serious adverse events

Reference: US20100056637A1, “TREATMENT METHODS USING TRIARYL METHANE COMPOUNDS” (Icagen, Inc., priority 2005, published 2010)
